Data from publication PMC7435983, “Galantamine-Curcumin Hybrids as Dual-Site Binding Acetylcholinesterase Inhibitors” (Molecules, 2020).
Read-outs that look alike come from different tables or passages of the source. Marks after values point to notes of the source that are not given here.

Experiments:
Neuro-2A cells [1] = assay: Neurotoxicity test, MTT-dye reduction assay; type: cell-based, Murine; conditions: Mus musculus, N2a, 72-h incubation
Method: The neurotoxicity of the GAL-CU hybrids was tested on Neuro-2A cells, as described in Materials and methods. […] Only five of the hybrids were less toxic than CU. One of them, compound 8b, is among the best-scored compounds; two of them, compounds 4e and 4f, are from the middle GoldScore range; and two of them, compounds 4a and 4b, belong to the low GoldScore range.
Murine neuroblastoma Neuro-2A cells (German collection DSMZ, Braunschweig, Germany) were cultivated under standard conditions: complete medium (90% DMEM, 10% heat-inactivated FBS, and non-essential amino acids); 37 °C and 5% CO2 in fully humidified atmosphere. The cell line was kept in the logarithmic growth phase by splitting 1:4 once a week using trypsin/EDTA. About 30% of the cells grew like neuronal cells. For the experimental evaluation of the cytotoxicity Neuro-2A, cells were plated in 96-well flat-bottomed cell culture plates at the recommended density of 1 × 10^6 cells/25cm^2. After 24 h, the cells were treated with various concentrations of the investigational compounds, and after 72-h incubation, an MTT-dye reduction assay was performed. Briefly, at the end of incubation, an MTT stock solution (10mg/mL in PBS) was added (0.01 mL/well). Plates were further incubated at 37 °C for 4 h. Next, the formazan crystals were dissolved by the addition of 0.110 mL/well 5% formic acid in 2-propanol (v/v). Absorption was measured at 580nm wavelength on an automated ELISA reader Labexim LMR1. At least six wells per concentration were used, and data were processed using the GraphPad Prism 5.0 software 2.0 (San Diego, CA, USA).

[2] = biological target: eeAChE (Electrophorus electricus AChE) (Electrophorus electricus, UniProt O42275); assay: biochemical
Method: As the docking studies were performed on rhAChE, while for the in vitro measurements was used AChE from electric eel (eeAChE), it was reasonably to question their relevance.
AChE activity was assayed as described by Ellman et al., with some modifications. […] The mixtures were incubated for 30 min at room temperature before the addition of 30 μL of the substrate solution (15 μL […], 15 μL 0.6 mM ATCI in buffer, pH 7.6).

[3] = Prediction of PK parameters by QSPR models
Description: The key PK parameters were predicted by quantitative […] (QSPRs) models derived previously. Three PK parameters were modelled: the steady state volume of distribution (VD^ss), free fraction of drug in plasma (fu) and unbound clearance (CLu). […]

Neuro-2A cells [4] = conditions: cited from earlier work
[5] = cited from earlier work

eeAChE (Electrophorus electricus AChE), sequence (O42275 24-633): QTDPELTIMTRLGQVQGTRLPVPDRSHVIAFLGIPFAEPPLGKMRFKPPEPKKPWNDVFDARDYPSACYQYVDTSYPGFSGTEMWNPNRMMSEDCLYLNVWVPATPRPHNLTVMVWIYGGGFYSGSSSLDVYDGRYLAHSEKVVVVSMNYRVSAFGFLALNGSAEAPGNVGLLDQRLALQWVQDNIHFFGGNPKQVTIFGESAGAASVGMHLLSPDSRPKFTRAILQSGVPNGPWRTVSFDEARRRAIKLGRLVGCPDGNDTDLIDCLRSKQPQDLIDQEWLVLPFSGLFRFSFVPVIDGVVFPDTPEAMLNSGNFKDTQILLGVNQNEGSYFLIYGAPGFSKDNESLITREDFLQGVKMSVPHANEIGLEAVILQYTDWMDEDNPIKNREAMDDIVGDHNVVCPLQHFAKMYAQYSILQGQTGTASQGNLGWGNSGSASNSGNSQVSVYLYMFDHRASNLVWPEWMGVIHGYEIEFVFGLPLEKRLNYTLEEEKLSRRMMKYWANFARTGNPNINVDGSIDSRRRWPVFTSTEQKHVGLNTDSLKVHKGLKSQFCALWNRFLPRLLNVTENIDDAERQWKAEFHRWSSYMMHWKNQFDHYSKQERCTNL

COc1ccc(/C=C/C(=O)CCCCN2CC[C@@]34C=C[C@H](O)C[C@@H]3Oc3c(OC)ccc(c34)C2)cc1 [4b]
IC50 (Neuro-2A cells [1]): 52.5 µM
IC50 [2]: 20 nM
Times More Active Than GAL [2]: 186

COc1cccc(/C=C/C(=O)CCCCN2CC[C@@]34C=C[C@H](O)C[C@@H]3Oc3c(OC)ccc(c34)C2)c1 [4c]
IC50 (Neuro-2A cells [1]): 24.1 µM

COc1ccc2c3c1O[C@H]1C[C@@H](O)C=C[C@@]31CCN(Cc1cccc(C(=O)/C=C/c3cccc(C)c3)c1)C2 [8g]
IC50 (Neuro-2A cells [1]): 17.8 µM

COc1ccc2c3c1O[C@H]1C[C@@H](O)C=C[C@@]31CCN(Cc1cccc(C(=O)/C=C/c3ccc(C)c(C)c3)c1)C2 [8h]
IC50 (Neuro-2A cells [1]): 25 µM

COc1ccc2c3c1O[C@H]1C[C@@H](O)C=C[C@@]31CCN(CCCCC(=O)/C=C/c1ccc3c(c1)OCO3)C2 [4e]
IC50 (Neuro-2A cells [1]): 42.9 µM
IC50 [2]: 36 nM
Times More Active Than GAL [2]: 98

COc1ccc2c3c1O[C@H]1C[C@@H](O)C=C[C@@]31CCN(Cc1cccc(/C=C/C(=O)c3ccccc3)c1)C2 [6a]
IC50 (Neuro-2A cells [1]): 12.1 µM

COc1ccc(C(=O)/C=C/c2cccc(CN3CC[C@@]45C=C[C@H](O)C[C@@H]4Oc4c(OC)ccc(c45)C3)c2)cc1 [6b]
IC50 (Neuro-2A cells [1]): 7.91 µM

COc1cc(/C=C/C(=O)CC(=O)/C=C/c2ccc(O)c(OC)c2)ccc1O [CU, (1E,6E)-1,7-Bis(4-hydroxy-3-methoxyphenyl)hepta-1,6-diene-3,5-dione, reference compound]
IC50 (Neuro-2A cells [1]): 26.3 µM

COc1ccc2c3c1O[C@H]1C[C@@H](O)C=C[C@@]31CCN(CCCCC(=O)/C=C/c1ccc(C)cc1)C2 [4f]
IC50 (Neuro-2A cells [1]): 34.4 µM
IC50 [2]: 33 nM
Times More Active Than GAL [2]: 110

COc1ccc(/C=C/C(=O)c2cccc(CN3CC[C@@]45C=C[C@H](O)C[C@@H]4Oc4c(OC)ccc(c45)C3)c2)cc1 [8b]
IC50 (Neuro-2A cells [1]): 28.9 µM
IC50 [2]: 86 nM
Times More Active Than GAL [2]: 41

COc1ccc2c3c1O[C@H]1C[C@@H](O)C=C[C@@]31CCN(CCCCC(=O)/C=C/c1ccc(C)c(C)c1)C2 [4h]
IC50 (Neuro-2A cells [1]): 21.9 µM

COc1ccc2c3c1O[C@H]1C[C@@H](O)C=C[C@@]31CCN(CCCCC(=O)/C=C/c1ccccc1)C2 [4a]
IC50 (Neuro-2A cells [1]): 30.7 µM
IC50 [2]: 46 nM
Times More Active Than GAL [2]: 75

COc1cccc(/C=C/C(=O)c2cccc(CN3CC[C@@]45C=C[C@H](O)C[C@@H]4Oc4c(OC)ccc(c45)C3)c2)c1 [8c]
IC50 (Neuro-2A cells [1]): 25.6 µM

COc1ccc2c3c1O[C@H]1C[C@@H](O)C=C[C@@]31CCN(C)C2 [GAL, Galantamine]
half-life [3]: 284 min
IC50 (Neuro-2A cells [4]): > 50 µM
VDss [5]: 2.30 ^a L/kg
fu ([5]; free fraction of drug in plasma): 0.83 ^a
CL ([5]; total clearance): 0.336 ^a L/h/kg

COc1ccc2c3c1O[C@H]1C[C@@H](O)C=C[C@@]31CCN(Cc1cccc(C(=O)/C=C/c3ccc(C)cc3)c1)C2 [8f]
IC50 (Neuro-2A cells [1]): 24.3 µM

COc1ccc2c3c1O[C@H]1C[C@@H](O)C=C[C@@]31CCN(CCCCC(=O)/C=C/c1cccc(C)c1)C2 [4g]
IC50 (Neuro-2A cells [1]): 23.7 µM
